Publication PMC8021118, “Shared recognition of citrullinated tenascin-C peptides by T and B cells in rheumatoid arthritis” (JCI Insight, 2021)
Read-outs that look alike come from different tables or passages of the source. Where a SMILES comes first, the peptide text is derived from it. Where no end group is shown, it is not given here. [ ]: non-standard residue; d: D form. Cit = NC(=O)NCCC[C@H](N)C(=O)O

Experiments:
[1] = biological target: HLA-DRB1*04:01 (Homo sapiens, UniProt P01903+P01911, A100K/A169T/F76Y/I96L/K127E/L162R/M171V/N62H/P40V/Q125Y/R42H/S133A/S149N/S66Y/V115G/V209L/W38E); assay: Peptide competition binding assay to HLA-DRB1*04:01; conditions: for Binding to HLA-DRB1*04:01 (in words): 15-mer T cell peptides, EC50 cutoff for measurable binding 50 μM
[2] = test system: CD4+ T cells in PBMC from HLA-DRB1*04:01+ subjects; assay: In vitro expansion of peptide-specific CD4+ T cells from PBMC and HLA class II tetramer staining; type: cell-based, human; conditions: for Responders (% in RA): RA subjects with positive in vitro response (>0.1% of CD4+ T cells tetramer+) of total tested, 10 μg/mL peptide, 14 days, n = 14, TNC44 and TNC59 n = 6; for Immunogenicity: Supplemental Table 1, ability to elicit an immune response in vitro (tetramer staining after expansion); for T cell responses in vitro (in words): noncitrullinated 15-mer versions
Description: TNC is a large protein (2110 amino acids in length) composed of an N-terminal assembly domain, 14.5 epidermal growth factor–like repeats (EGF-L), 8 constant fibronectin type III–like repeats (FNIII), and an additional 9 alternatively spliced FNIII elements, and a C-terminal fibrinogen-like globe (FBG) ([16]). Using a previously described algorithm ([9], [24]), we scanned the entire length of the TNC monomer and identified 64 arg-containing peptides with motifs that would predict to permit binding to HLA-DRB1*04:01 in either their noncitrullinated native form, citrullinated form, or both. Based on these predictions, we synthesized the citrullinated versions of these peptides and tested their ability to bind HLA-DRB1*04:01 and to elicit CD4^+ T cell expansion in vitro. Of the peptides synthesized, 8 cit-TNC peptides bound to HLA-DRB1*04:01 with moderate to high affinity (Table 1). Among these, cit-TNC17, cit-TNC22, cit-TNC45, cit-TNC50, and cit-TNC56 were determined to be the most immunogenic, based on their ability to drive epitope-specific T cell expansion, as measured by HLA class II tetramer (Tmr) staining of peripheral blood mononuclear cells (PBMC) from HLA-DRB1*04:01^+ subjects following 2 weeks of in vitro expansion (Table 1 and Supplemental Figure 1; supplemental material available online with this article; https://doi.org/10.1172/jci.insight.145217DS1).
Recombinant HLA-DRB1*04:01 protein was produced by the BRI Tetramer Core as previously described ([56]). Soluble HLA-DRB1*04:01 monomer was purified from insect cell culture supernatants and biotinylated at a sequence-specific site using biotin ligase (Avidity) prior to dialysis into phosphate storage buffer. The biotinylated monomer was loaded with 0.2 mg/mL of peptide by incubating at 37°C for 72 hours in the presence of 2.5 mg/mL n-octyl β-D-glucopyranoside and 1 mM Pefabloc SC (Sigma-Aldrich). Peptide-loaded monomers were conjugated into Tmrs using fluorescently labeled streptavidin (Invitrogen) for 6–18 hours at room temperature at a molar ratio of 8:1.
Cryopreserved PBMCs from RA and healthy subjects were cultured at 5 × 10^6 cells/well in a 48-well plate in RPMI-1640 + 10% HPS with 10 μg/mL of peptide. IL-2 (Novartis) was added at 325 IU/mL on day 6. On day 14, cells were stained for expression of Tmr-PE, CD25 APC (BD Biosciences), and CD4 FITC (BioLegend) (Supplemental Table 8) and then run on a FACSCanto. The data were analyzed by FlowJo software version 10.

[3] = Supplemental Table 1, citrullinated (X) vs arginine (R) versions, cutoff in the peptide binding assay 50 μM

Work on `CC[C@H](C)[C@H](NC(=O)[C@H](CC(C)C)NC(=O)[C@H](CO)NC(=O)[C@@H](N)C(C)C)C(=O)N[C@@H](CO)C(=O)N[C@@H](CCCNC(N)=O)C(=O)N[C@@H](CCCNC(N)=O)C(=O)NCC(=O)N[C@@H](CC(=O)O)C(=O)N[C@@H](CCSC)C(=O)N[C@@H](CO)C(=O)N[C@@H](CO)C(=O)N[C@@H](CC(N)=O)C(=O)N1CCC[C@H]1C(=O)N[C@@H](C)C(=O)O` [TNC17] (H-VSLIS[Cit][Cit]GDMSSNPA-OH) yielded an EC50 [1] of 3.6 µM.
With `CC[C@H](C)[C@H](NC(=O)[C@H](CCC(=O)O)NC(=O)[C@H](C)NC(=O)[C@H](CCCNC(N)=O)NC(=O)[C@H](CC(C)C)NC(=O)[C@@H]1CCCN1C(=O)[C@H](CCCCN)NC(=O)[C@@H](N)[C@@H](C)O)C(=O)N[C@H](C(=O)N[C@H](C(=O)N[C@@H](CCC(=O)O)C(=O)N[C@@H](C)C(=O)N[C@@H](CCC(=O)O)C(=O)N1CCC[C@H]1C(=O)N[C@@H](CCC(=O)O)C(=O)O)[C@@H](C)O)C(C)C` [TNC44] (H-TKPL[Cit]AEIVTEAEPE-OH) the “Responders (% in RA)” value [2] was 33% and the EC50 [1] was 33.3 µM.
For `CC[C@H](C)[C@H](NC(=O)[C@H](C)NC(=O)[C@@H]1CCCN1C(=O)[C@H](CCC(N)=O)NC(=O)[C@H](Cc1c[nH]c2ccccc12)NC(=O)[C@H](CCCNC(N)=O)NC(=O)[C@H](C)NC(=O)[C@@H](N)CC(C)C)C(=O)N[C@@H](C)C(=O)N[C@H](C(=O)N[C@H](C(=O)N[C@@H](CC(=O)O)C(=O)N[C@@H](CO)C(=O)N[C@@H](Cc1ccc(O)cc1)C(=O)N[C@H](C(=O)O)C(C)C)C(C)C)[C@@H](C)O` [TNC52] (H-LA[Cit]WQPAIATVDSYV-OH), the “Responders (% in RA)” value [2] was 33% and the EC50 [1] was 28.8 µM.
With `CC(C)C[C@H](NC(=O)[C@H](CCC(=O)O)NC(=O)[C@H](Cc1ccc(O)cc1)NC(=O)[C@H](CCC(N)=O)NC(=O)CNC(=O)[C@@H](N)CCC(N)=O)C(=O)N[C@@H](CCCNC(N)=O)C(=O)N[C@H](C(=O)N[C@@H](CC(=O)O)C(=O)N[C@@H](CC(C)C)C(=O)N[C@@H](CCCNC(N)=O)C(=O)N[C@@H](CC(=O)O)C(=O)N[C@@H](Cc1c[nH]cn1)C(=O)NCC(=O)N[C@@H](CCC(=O)O)C(=O)O)C(C)C` [TNC56] (H-QGQYEL[Cit]VDL[Cit]DHGE-OH) the EC50 [1] was 9 µM.
In the case of `CSCC[C@H](NC(=O)[C@@H](N)CO)C(=O)N[C@@H](C)C(=O)N[C@@H](Cc1ccc(O)cc1)C(=O)N[C@@H](Cc1c[nH]cn1)C(=O)N[C@@H](CC(N)=O)C(=O)NCC(=O)N[C@@H](CCCNC(N)=O)C(=O)N[C@@H](CO)C(=O)N[C@@H](Cc1ccccc1)C(=O)N[C@@H](CO)C(=O)N[C@H](C(=O)N[C@@H](Cc1ccccc1)C(=O)N[C@@H](CC(=O)O)C(=O)N[C@@H](CCCCN)C(=O)O)[C@@H](C)O` [TNC59] (H-SMAYHNG[Cit]SFSTFDK-OH), the “Responders (% in RA)” value [2] is reported as 33% and the EC50 [1] is reported as 25 µM.
In the case of `CC[C@H](C)[C@H](NC(=O)[C@H](CC(C)C)NC(=O)[C@H](CO)NC(=O)[C@@H](N)C(C)C)C(=O)N[C@@H](CO)C(=O)N[C@@H](CCCNC(=N)N)C(=O)N[C@@H](CCCNC(N)=O)C(=O)NCC(=O)N[C@@H](CC(=O)O)C(=O)N[C@@H](CCSC)C(=O)N[C@@H](CO)C(=O)N[C@@H](CO)C(=O)N[C@@H](CC(N)=O)C(=O)N1CCC[C@H]1C(=O)N[C@@H](C)C(=O)O` [TNC-17RX] (H-VSLISR[Cit]GDMSSNPA-OH), the EC50 [1, 3] is reported as 4.7 µM.
With `CC[C@H](C)[C@H](NC(=O)[C@H](CC(C)C)NC(=O)[C@H](CO)NC(=O)[C@@H](N)C(C)C)C(=O)N[C@@H](CO)C(=O)N[C@@H](CCCNC(N)=O)C(=O)N[C@@H](CCCNC(=N)N)C(=O)NCC(=O)N[C@@H](CC(=O)O)C(=O)N[C@@H](CCSC)C(=O)N[C@@H](CO)C(=O)N[C@@H](CO)C(=O)N[C@@H](CC(N)=O)C(=O)N1CCC[C@H]1C(=O)N[C@@H](C)C(=O)O` [TNC-17XR] (H-VSLIS[Cit]RGDMSSNPA-OH) the EC50 [1, 3] was over 50 µM.
In the case of `CC(C)C[C@H](NC(=O)[C@H](CCCNC(N)=O)NC(=O)[C@H](Cc1ccc(O)cc1)NC(=O)[C@H](CCCNC(=N)N)NC(=O)[C@H](CC(=O)O)NC(=O)[C@@H](N)Cc1ccccc1)C(=O)N[C@@H](CC(N)=O)C(=O)N[C@@H](Cc1ccc(O)cc1)C(=O)N[C@@H](CO)C(=O)N[C@@H](CC(C)C)C(=O)N1CCC[C@H]1C(=O)N[C@H](C(=O)NCC(=O)N[C@@H](CCC(N)=O)C(=O)N[C@@H](Cc1c[nH]c2ccccc12)C(=O)O)[C@@H](C)O` [TNC-22RX] (H-FDRY[Cit]LNYSLPTGQW-OH), the Immunogenicity [2] is reported as “Yes” and the EC50 [1, 3] is reported as 0.9 µM.
In the case of `CC(C)C[C@H](NC(=O)[C@H](CCCNC(=N)N)NC(=O)[C@H](Cc1ccc(O)cc1)NC(=O)[C@H](CCCNC(N)=O)NC(=O)[C@H](CC(=O)O)NC(=O)[C@@H](N)Cc1ccccc1)C(=O)N[C@@H](CC(N)=O)C(=O)N[C@@H](Cc1ccc(O)cc1)C(=O)N[C@@H](CO)C(=O)N[C@@H](CC(C)C)C(=O)N1CCC[C@H]1C(=O)N[C@H](C(=O)NCC(=O)N[C@@H](CCC(N)=O)C(=O)N[C@@H](Cc1c[nH]c2ccccc12)C(=O)O)[C@@H](C)O` [TNC-22XR] (H-FD[Cit]YRLNYSLPTGQW-OH), the Immunogenicity [2] is reported as “Yes” and the EC50 [1, 3] is reported as 0.6 µM.
With `CC(C)C[C@H](NC(=O)[C@H](CCC(=O)O)NC(=O)[C@H](Cc1ccc(O)cc1)NC(=O)[C@H](CCC(N)=O)NC(=O)CNC(=O)[C@@H](N)CCC(N)=O)C(=O)N[C@@H](CCCNC(=N)N)C(=O)N[C@H](C(=O)N[C@@H](CC(=O)O)C(=O)N[C@@H](CC(C)C)C(=O)N[C@@H](CCCNC(N)=O)C(=O)N[C@@H](CC(=O)O)C(=O)N[C@@H](Cc1c[nH]cn1)C(=O)NCC(=O)N[C@@H](CCC(=O)O)C(=O)O)C(C)C` [TNC-56RX] (H-QGQYELRVDL[Cit]DHGE-OH) the EC50 [1, 3] was over 50 µM.
With `CC(C)C[C@H](NC(=O)[C@H](CCC(=O)O)NC(=O)[C@H](Cc1ccc(O)cc1)NC(=O)[C@H](CCC(N)=O)NC(=O)CNC(=O)[C@@H](N)CCC(N)=O)C(=O)N[C@@H](CCCNC(N)=O)C(=O)N[C@H](C(=O)N[C@@H](CC(=O)O)C(=O)N[C@@H](CC(C)C)C(=O)N[C@@H](CCCNC(=N)N)C(=O)N[C@@H](CC(=O)O)C(=O)N[C@@H](Cc1c[nH]cn1)C(=O)NCC(=O)N[C@@H](CCC(=O)O)C(=O)O)C(C)C` [TNC-56XR] (H-QGQYEL[Cit]VDLRDHGE-OH) the EC50 [1, 3] was 8.7 µM.
In the case of “CEYEVSLISRRGDMSSNPAC [arg-TNC17, Cys-flanked arginine TNC17 peptide used in ELISA]”, the “Binding to HLA-DRB1*04:01 (in words)” value [1] is reported as “did not”.
For “CPTAQVESFRITYVPITGGC [arg-TNC50, Cys-flanked arginine TNC50 peptide used in ELISA]”, the “T cell responses in vitro (in words)” value [2] was “had the ability to elicit T cell responses in vitro” and the “Binding to HLA-DRB1*04:01 (in words)” value [1] was “bound”.
For “CQGQYELRVDLRDHGETAFC [arg-TNC56, Cys-flanked arginine TNC56 peptide used in ELISA]”, the “Binding to HLA-DRB1*04:01 (in words)” value [1] was “did not”.
With “CTPLAKFDRYRLNYSLPTGC [arg-TNC22, Cys-flanked arginine TNC22 peptide used in ELISA]” the “T cell responses in vitro (in words)” value [2] was “had the ability to elicit T cell responses in vitro” and the “Binding to HLA-DRB1*04:01 (in words)” value [1] was “bound”.
With “CVSDATPDGFRLSWTADEGC [arg-TNC45, Cys-flanked arginine TNC45 peptide used in ELISA]” the “T cell responses in vitro (in words)” value [2] was “had the ability to elicit T cell responses in vitro” and the “Binding to HLA-DRB1*04:01 (in words)” value [1] was “bound”.
For FDRYRLNYSLPTGQW [TNC-22RR], the Immunogenicity [2] was “Yes” and the EC50 [1, 3] was 1 µM.
For H-QGQYELRVDLRDHGE-OH [TNC-56RR], the EC50 [1, 3] was over 50 µM.
Compound H-VSLISRRGDMSSNPA-OH [TNC-17RR] has an EC50 [1, 3] of over 50 µM.
With PDGFRLSWTADEGVF [TNC-45R] the Immunogenicity [2] was “Yes” and the EC50 [1, 3] was 5.7 µM.
VESFRITYVPITGGT [TNC-50R] was tested, and the Immunogenicity [2] was “Yes” and the EC50 [1, 3] was 1 µM.
